Results taken from publication PMC7979765, “trans-Translation inhibitors bind to a novel site on the ribosome and clear Neisseria gonorrhoeae in vivo” (Nature Communications, 2021).
Converted amounts (≈) assume the structure as drawn. “And” between values parts separate entries of the source, which are not always exact repeats. Identical values can stand only once. “Also recorded” adds a separate entry of the source. Like-named read-outs stand apart in the source and are kept apart here.

Key:
[1] = target: T1, Muscarinic M1 (Homo sapiens, UniProt P11229); experiment: Receptor Profiling 252610; type: binding
T1 construct: purchased Eurofins Discovery Services (Panlabs safety panel)
Procedure: (§1) Several in vitro selectivity assays were performed at Eurofins Discovery Services using established methods and controls that behaved as expected (Supplementary Tables 5 and 6). […] For receptor panel profiling, MBX-4132 was evaluated at 10 μM and activity of >50% (agonist or antagonist; note that negative % inhibition indicates agonism) was scored as active.

[2] = target: T2, Dopamine D1 (Homo sapiens, UniProt P21728); experiment: Receptor Profiling 219500; type: binding
T2 construct: purchased Eurofins Discovery Services (Panlabs safety panel)
Procedure: as §1

[3] = target: T3, Serotonin (5-hydroxytryptamine) 5-HT3 (Homo sapiens, UniProt P46098); experiment: Receptor Profiling 271910; type: binding
T3 construct: Eurofins Discovery Services (contract assay) 271910
Procedure: as §1

[4] = target: T4, Adrenergic β1 (Homo sapiens, UniProt P08588); experiment: Receptor Profiling 204010; type: binding
T4 construct: purchased Eurofins Discovery Services (Panlabs safety panel)
Procedure: as §1

[5] = target: T5, Dopamine D2s (Homo sapiens, UniProt P14416); experiment: Receptor Profiling 219700; type: binding
T5 construct: purchased Eurofins Discovery Services (Panlabs safety panel)
T5 sequence (P14416 1-414 isoform P14416-2): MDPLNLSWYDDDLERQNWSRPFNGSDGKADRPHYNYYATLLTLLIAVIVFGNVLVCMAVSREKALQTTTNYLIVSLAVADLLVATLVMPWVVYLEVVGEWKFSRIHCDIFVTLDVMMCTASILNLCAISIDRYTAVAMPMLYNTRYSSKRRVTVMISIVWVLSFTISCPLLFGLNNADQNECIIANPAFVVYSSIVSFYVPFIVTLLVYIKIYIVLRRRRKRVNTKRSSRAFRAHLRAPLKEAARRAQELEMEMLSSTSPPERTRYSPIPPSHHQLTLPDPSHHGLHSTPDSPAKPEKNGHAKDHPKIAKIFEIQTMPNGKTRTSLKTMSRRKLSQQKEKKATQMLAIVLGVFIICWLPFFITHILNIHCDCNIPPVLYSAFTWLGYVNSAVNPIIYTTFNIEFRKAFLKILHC
Procedure: as §1

[6] = system: translation; experiment: In vitro translation assay (full-length nano-luciferase gene); type: biochemical, Escherichia coli; settings: for % of translation activity: 0 uM = 100
[7] = system: HepG2 cells; experiment: Mitochondrial toxicity assay, glucose vs galactose; type: cell-based; settings: for % viability: HepG2, replicates
Procedure: (§2) Mitochondrial toxicity assay — HepG2 cells (ATCC) were seeded and cultured in media containing either glucose or galactose overnight. Test compounds were added at 8 concentrations ([…] from 100 µM to 30 nM) and incubated with the cells for 24 h. Cell viability was measured by the alamarBlue method. The data in Supplementary Table 7 are inconsistent with MBX-4132 disrupting mitochondrial metabolic processes. Assays were performed at Eurofins Cerep Panlabs.

[8] = Mitochondrial toxicity assay, glucose vs galactose; type: cell-based; settings: human, HepG2; for viability at 24 h, 100 µM: Conc. (μM) 1.00E-04; for viability at 24 h, 3 µM: Conc. (μM) 3.00E-06
Procedure: as §2

[9] = target: T6, hERG (Homo sapiens, UniProt Q12809); experiment: Cardiac Ion Channel Panel; type: cell-based; settings: hERG antagonist; CYL8038QP2DR; read-out: IC50 (µM) reported
T6 construct: Eurofins Discovery Services (contract assay) CYL8038QP2DR
T6 sequence (Q12809 whole entry): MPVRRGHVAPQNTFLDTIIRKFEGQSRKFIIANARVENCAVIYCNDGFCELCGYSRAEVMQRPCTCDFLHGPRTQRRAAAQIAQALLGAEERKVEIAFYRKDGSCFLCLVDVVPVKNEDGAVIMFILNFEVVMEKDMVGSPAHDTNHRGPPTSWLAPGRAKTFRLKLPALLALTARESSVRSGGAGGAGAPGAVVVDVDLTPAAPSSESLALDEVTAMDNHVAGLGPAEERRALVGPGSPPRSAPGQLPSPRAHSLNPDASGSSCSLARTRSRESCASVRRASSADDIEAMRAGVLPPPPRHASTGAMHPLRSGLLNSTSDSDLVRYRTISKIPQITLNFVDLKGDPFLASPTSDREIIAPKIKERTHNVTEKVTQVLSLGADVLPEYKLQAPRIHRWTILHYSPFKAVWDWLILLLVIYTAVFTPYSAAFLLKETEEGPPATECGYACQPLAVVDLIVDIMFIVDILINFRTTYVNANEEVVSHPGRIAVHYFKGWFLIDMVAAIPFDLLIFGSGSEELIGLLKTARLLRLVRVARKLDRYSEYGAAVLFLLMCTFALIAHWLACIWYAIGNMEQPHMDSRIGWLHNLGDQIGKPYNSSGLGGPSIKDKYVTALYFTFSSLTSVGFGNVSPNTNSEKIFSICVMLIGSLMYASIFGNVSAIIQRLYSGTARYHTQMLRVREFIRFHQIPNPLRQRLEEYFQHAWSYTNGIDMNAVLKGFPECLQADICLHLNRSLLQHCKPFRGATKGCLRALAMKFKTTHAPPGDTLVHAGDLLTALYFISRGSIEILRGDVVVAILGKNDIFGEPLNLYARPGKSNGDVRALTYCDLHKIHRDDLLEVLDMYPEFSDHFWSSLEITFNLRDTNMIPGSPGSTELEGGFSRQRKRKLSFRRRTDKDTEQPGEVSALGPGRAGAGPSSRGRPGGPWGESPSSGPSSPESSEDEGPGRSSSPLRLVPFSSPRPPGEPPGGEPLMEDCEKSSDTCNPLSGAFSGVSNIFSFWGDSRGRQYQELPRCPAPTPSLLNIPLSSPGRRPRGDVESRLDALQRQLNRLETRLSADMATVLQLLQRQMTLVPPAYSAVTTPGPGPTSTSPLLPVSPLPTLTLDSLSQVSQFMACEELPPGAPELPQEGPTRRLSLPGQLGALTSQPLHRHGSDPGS
Procedure: as §1

[10] = target: T7, Kv4.3/ChIP2 (Homo sapiens, UniProt Q9UK17); experiment: Cardiac Ion Channel Panel; type: cell-based; settings: Kv4.3/ChIP2 antagonist; Peak $ End; CYL8069QP2DR; read-out: IC50 (µM) reported
T7 construct: Eurofins Discovery Services (contract assay) CYL8069QP2DR
T7 sequence (Q9UK17 whole entry): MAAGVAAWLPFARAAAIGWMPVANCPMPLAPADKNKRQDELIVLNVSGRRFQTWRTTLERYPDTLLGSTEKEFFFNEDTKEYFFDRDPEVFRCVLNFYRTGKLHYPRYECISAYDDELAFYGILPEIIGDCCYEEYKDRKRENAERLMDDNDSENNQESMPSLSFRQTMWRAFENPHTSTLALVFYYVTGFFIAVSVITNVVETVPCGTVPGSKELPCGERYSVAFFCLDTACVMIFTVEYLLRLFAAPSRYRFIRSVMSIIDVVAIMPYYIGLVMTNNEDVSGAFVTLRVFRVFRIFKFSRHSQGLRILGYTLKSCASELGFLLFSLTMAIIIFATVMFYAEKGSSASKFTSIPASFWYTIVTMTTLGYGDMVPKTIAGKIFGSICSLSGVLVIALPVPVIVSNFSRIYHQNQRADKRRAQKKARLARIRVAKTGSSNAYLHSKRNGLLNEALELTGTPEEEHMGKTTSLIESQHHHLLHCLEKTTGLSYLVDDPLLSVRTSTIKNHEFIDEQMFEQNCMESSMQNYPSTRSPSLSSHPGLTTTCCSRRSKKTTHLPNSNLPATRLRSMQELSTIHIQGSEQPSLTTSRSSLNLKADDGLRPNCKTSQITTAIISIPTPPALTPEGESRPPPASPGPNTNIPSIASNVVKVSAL
T7 sequence (Q9NS61 whole entry partner): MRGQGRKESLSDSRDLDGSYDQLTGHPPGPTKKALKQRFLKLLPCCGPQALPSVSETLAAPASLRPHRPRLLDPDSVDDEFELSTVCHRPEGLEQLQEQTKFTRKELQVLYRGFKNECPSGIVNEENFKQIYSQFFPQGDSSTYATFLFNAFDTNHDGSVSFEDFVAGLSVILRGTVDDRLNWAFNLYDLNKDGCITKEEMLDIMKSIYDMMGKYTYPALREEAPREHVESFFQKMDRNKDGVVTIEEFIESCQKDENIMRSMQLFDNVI
Procedure: as §1

[11] = target: T8, Nav1.5 late current (Homo sapiens, UniProt Q14524); experiment: Cardiac Ion Channel Panel; type: cell-based
T8 construct: Eurofins Discovery Services (contract assay) CYL8004QP2DR; CYL7004QP1DR; CYL7004QP2DR
T8 sequence (Q14524 whole entry): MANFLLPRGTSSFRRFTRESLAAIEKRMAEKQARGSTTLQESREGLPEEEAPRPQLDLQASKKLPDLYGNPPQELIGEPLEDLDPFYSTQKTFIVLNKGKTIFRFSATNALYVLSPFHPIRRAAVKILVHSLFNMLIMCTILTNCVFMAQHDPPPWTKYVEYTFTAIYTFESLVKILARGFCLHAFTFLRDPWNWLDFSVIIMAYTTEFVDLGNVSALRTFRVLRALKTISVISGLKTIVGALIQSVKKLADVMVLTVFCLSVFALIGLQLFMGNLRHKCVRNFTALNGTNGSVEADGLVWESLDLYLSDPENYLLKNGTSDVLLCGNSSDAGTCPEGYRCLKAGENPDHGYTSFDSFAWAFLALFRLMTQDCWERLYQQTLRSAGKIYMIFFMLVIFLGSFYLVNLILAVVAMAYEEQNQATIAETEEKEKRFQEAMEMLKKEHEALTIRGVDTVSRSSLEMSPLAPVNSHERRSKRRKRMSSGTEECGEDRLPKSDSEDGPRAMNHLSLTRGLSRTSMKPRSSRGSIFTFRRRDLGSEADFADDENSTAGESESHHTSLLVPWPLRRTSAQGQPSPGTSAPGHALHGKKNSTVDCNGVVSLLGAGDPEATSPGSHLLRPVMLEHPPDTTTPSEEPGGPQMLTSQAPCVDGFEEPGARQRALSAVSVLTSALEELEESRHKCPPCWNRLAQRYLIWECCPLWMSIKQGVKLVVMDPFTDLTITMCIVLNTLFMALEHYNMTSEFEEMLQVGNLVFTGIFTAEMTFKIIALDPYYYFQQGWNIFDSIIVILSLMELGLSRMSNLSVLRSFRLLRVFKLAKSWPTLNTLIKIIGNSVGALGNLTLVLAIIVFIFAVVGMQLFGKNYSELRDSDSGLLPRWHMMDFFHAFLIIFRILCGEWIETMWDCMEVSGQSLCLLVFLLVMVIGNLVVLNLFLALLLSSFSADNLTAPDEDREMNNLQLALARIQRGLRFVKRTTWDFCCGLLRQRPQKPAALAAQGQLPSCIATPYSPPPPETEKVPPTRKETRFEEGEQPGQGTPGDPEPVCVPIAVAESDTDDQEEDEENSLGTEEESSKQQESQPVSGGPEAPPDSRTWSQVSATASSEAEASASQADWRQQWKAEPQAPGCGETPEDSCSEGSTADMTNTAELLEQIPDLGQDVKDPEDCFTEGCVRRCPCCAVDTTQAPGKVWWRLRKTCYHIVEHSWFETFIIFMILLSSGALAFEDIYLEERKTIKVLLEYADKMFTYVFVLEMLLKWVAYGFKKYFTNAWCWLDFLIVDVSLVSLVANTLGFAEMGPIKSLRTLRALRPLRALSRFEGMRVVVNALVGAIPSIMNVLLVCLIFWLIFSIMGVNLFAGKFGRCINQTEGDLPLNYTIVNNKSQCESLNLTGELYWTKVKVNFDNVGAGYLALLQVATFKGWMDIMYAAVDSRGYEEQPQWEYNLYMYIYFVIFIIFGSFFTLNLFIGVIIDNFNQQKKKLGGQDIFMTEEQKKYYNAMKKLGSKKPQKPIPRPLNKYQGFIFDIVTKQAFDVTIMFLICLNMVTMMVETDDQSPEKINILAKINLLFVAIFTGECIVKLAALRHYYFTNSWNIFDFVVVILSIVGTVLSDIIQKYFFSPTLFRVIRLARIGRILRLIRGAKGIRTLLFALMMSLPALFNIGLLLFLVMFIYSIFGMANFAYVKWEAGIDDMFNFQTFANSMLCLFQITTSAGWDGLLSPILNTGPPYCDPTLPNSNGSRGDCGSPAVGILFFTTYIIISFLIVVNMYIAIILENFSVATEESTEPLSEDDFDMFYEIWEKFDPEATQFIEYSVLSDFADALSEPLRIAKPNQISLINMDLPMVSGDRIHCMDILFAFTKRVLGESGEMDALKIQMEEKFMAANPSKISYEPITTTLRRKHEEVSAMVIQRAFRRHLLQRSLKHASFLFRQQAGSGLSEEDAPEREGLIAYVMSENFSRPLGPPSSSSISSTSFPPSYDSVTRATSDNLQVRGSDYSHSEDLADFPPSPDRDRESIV
Procedure: as §1

[12] = target: T9, Kir2.1 (Homo sapiens, UniProt P63252); experiment: Cardiac Ion Channel Panel; type: cell-based; settings: Kir2.1 antagonist; Peak $ End; CYL8032QP2DR; read-out: IC50 (µM) reported
T9 construct: Eurofins Discovery Services (contract assay) CYL8032QP2DR
Procedure: as §1

[13] = target: T10, Adrenergic α1A (Homo sapiens, UniProt P35348); experiment: Receptor Profiling 203110; type: binding
T10 construct: purchased Eurofins Discovery Services (Panlabs safety panel)
Procedure: as §1

[14] = Liver microsome stability, human; type: in vitro ADME
Procedure: To examine potential for first-pass metabolism of analogs in the liver, the stability of analogs in the presence of liver microsome preparations (Eurofins Discovery for human, dog and rat; Xenotech for mouse) was measured using the method of Kuhnz, et al.[50]. for murine studies and Oback for the dog, human and rat studies. The amount of parent compound remaining after incubation with microsomes in the presence of NADPH over a 30 min time range was measured using a reverse-phase liquid chromatography/mass spectroscopy method that was customized for each compound. Half-lives were calculated using linear regression analysis of several time points.

[15] = target: T11, Phosphodiesterase PDE4D2 (Homo sapiens, UniProt Q08499); experiment: Receptor Profiling 154420; type: biochemical
T11 construct: Eurofins Discovery Services (contract assay) 154420
Procedure: as §1

[16] = target: T12, Nicotinic Acetylcholine α4β2, Cytisine (Homo sapiens, UniProt P17787+P43681); experiment: Receptor Profiling 299031; type: binding
T12 construct: purchased Eurofins Discovery Services (Panlabs safety panel)
Procedure: as §1

[17] = target: T13, Serotonin (5-hydroxytryptamine) 5-HT1A (Homo sapiens, UniProt P08908); experiment: Receptor Profiling 271110; type: binding
T13 construct: purchased Eurofins Discovery Services (Panlabs safety panel)
Procedure: as §1

[18] = system: Haemophilus influenzae; experiment: MIC, microbroth dilution; type: cell-based
[19] = target: T14, Serotonin (5-hydroxytryptamine) 5-HT2B (Homo sapiens, UniProt P41595); experiment: Receptor Profiling 271700; type: binding
T14 construct: Eurofins Discovery Services (contract assay) 271700
Procedure: as §1

[20] = target: T15, Cycloogenase COX-1 (Homo sapiens, UniProt P23219); experiment: Receptor Profiling 116030; type: biochemical
T15 construct: Eurofins Discovery Services (contract assay) 116030
T15 sequence (P23219 24-599): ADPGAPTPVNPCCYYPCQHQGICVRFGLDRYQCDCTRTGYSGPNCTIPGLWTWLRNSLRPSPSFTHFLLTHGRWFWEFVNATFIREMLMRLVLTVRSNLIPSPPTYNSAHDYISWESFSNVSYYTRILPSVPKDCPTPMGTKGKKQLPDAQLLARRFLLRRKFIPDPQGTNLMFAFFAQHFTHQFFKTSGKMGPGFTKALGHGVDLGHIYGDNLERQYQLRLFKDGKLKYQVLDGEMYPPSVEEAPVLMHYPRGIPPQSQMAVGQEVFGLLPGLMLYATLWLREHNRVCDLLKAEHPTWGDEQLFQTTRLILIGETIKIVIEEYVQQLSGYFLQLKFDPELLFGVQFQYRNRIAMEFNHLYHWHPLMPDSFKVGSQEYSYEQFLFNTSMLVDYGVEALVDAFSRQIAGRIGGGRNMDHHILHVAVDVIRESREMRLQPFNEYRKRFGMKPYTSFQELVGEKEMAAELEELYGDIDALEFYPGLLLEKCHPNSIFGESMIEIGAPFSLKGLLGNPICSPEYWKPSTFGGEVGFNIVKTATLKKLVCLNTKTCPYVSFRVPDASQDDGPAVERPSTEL
Procedure: as §1

[21] = HepG2 cells, Galactcose, read-out: Mean % viability
[22] = HepG2 cells, Galactcose, replicates, read-out: % viability
[23] = HepG2 cells, Glucose, read-out: Mean % viability
[24] = HepG2 cells, Glucose, replicates, read-out: % viability

For `O=C(Nc1nnc(-c2ccc(F)cc2)o1)N1CCc2ccccc2C1` [MBX-4132], which inhibition at 10 µM [1] is on record?
The inhibition at 10 µM was -7%.

And the inhibition at 10 µM [2]?
The inhibition at 10 µM was 26%.

What about the inhibition at 10 µM [3] of the same compound?
Its inhibition at 10 µM is 4%.

And the inhibition at 10 µM [4]?
Its inhibition at 10 µM is -8%.

And the inhibition at 10 µM [5]?
The inhibition at 10 µM was 21%.

What about the “% of translation activity” value ([6]; [MBX-4132] 0.01 uM) of the same compound?
Its value is 94% and 99%.

What about the “% of translation activity” value ([6]; [MBX-4132] 0.1 uM) of the same compound?
Its value is 98% and 102%.

And the “% of translation activity” value ([6]; [MBX-4132] 1 uM)?
The value was 92% and 103%.

What about the “% of translation activity” value ([6]; [MBX-4132] 2 uM) of the same compound?
The value was 86% and 97%.

And the “% of translation activity” value ([6]; [MBX-4132] 10 uM)?
The value was 106% and 98%.

What about the “% of translation activity” value ([6]; [MBX-4132] 20 uM) of the same compound?
The value was 97% and 96%.

And the “% of translation activity” value ([6]; [MBX-4132] 50 uM)?
The value was 93% and 99%.

And the “inhibition of translation in vitro (in words)” value ([6]; full-length nano-luciferase gene control)?
The value was “did not inhibit translation; also recorded: does not inhibit translation”.

What about the “% viability” value ([7]; Galactcose, Conc. (μM) 1.00E-04) of the same compound?
Its value is 62.7%.

And the “% viability” value ([7]; Galactcose, Conc. (μM) 3.00E-05)?
The value was 99.1%.

What about the “% viability” value ([7]; Galactcose, Conc. (μM) 3.00E-06) of the same compound?
The value was 94.2%.

And the “% viability” value ([7]; Glucose, Conc. (μM) 1.00E-04)?
The value was 85.6%.

What about the “% viability” value ([7]; Glucose, Conc. (μM) 1.00E-05) of the same compound?
Its value is 107.5%.

What about the “% viability” value ([7]; Glucose, Conc. (μM) 3.00E-05) of the same compound?
Its value is 106.5%.

What about the “% viability” value ([7]; Glucose, Conc. (μM) 3.00E-06) of the same compound?
The value was 103.0%.

And the “differential toxicity glucose vs galactose (in words)” value ([7]; HepG2 cells)?
Its value is “did not induce differential toxicity”.

And the viability at 24 h, 1e-05 μM ([8]; Glucose, Conc. (μM) 1.00E-05, replicates)?
Its viability at 24 h, 1e-05 μM is 108%.

And the viability at 24 h, 100 µM [8, 21]?
The viability at 24 h, 100 µM was 64%.

And the viability at 24 h, 100 µM [8, 22]?
The viability at 24 h, 100 µM was 65.3%.

And the viability at 24 h, 10 µM ([8]; HepG2 cells, Galactcose, Conc. (μM) 1.00E-05)?
The viability at 24 h, 10 µM was 95.4%.

What about the viability at 24 h, 3 µM [8, 21] of the same compound?
The viability at 24 h, 3 µM was 94.1%.

And the viability at 24 h, 3 µM [8, 22]?
The viability at 24 h, 3 µM was 93.9%.

And the viability at 24 h, 30 µM ([8]; HepG2 cells, Galactose, Conc. (μM) 3.00E-05, 24 h)?
Its viability at 24 h, 30 µM is 96.8%.

And the viability at 24 h, 100 µM [8, 23]?
Its viability at 24 h, 100 µM is 81.9%.

What about the viability at 24 h, 100 µM [8, 24] of the same compound?
The viability at 24 h, 100 µM was 78.3%.

What about the viability at 24 h, 10 µM ([8]; HepG2 cells, Glucose, Conc. (μM) 1.00E-05) of the same compound?
Its viability at 24 h, 10 µM is 108%.

And the viability at 24 h, 3 µM [8, 23]?
The viability at 24 h, 3 µM was 110%.

What about the viability at 24 h, 3 µM [8, 24] of the same compound?
Its viability at 24 h, 3 µM is 116%.

And the IC50 [9]?
Its IC50 is greater than 30 µM.

What about the IC50 [10] of the same compound?
The IC50 was greater than 30 µM.

And the IC50 [11]?
The IC50 was greater than 30 µM.

What about the IC50 ([11]; read-out: Est. IC50, Antagonist mode) of the same compound?
Its IC50 is greater than 30 µM.

And the IC50 ([11]; read-out: IC50 (µM) reported, Nav1.5 late current agonist, CYL7004QP1DR)?
The IC50 was greater than 30 µM.

What about the IC50 ([11]; read-out: IC50 (µM) reported, Nav1.5 late current antagonist, CYL7004QP2DR) of the same compound?
The IC50 was greater than 30 µM.

And the IC50 [12]?
Its IC50 is greater than 30 µM.

What about the inhibition at 10 µM [13] of the same compound?
Its inhibition at 10 µM is 6%.

What about the “Microsomal stability (t½, min) Human” value ([14]; Reported value, Eurofins) of the same compound?
Its value is greater than 120 min.

What about the half-life ([14]; human, liver microsomes, read-out: Microsomal Stability (t1/2; min) Hum.) of the same compound?
The half-life was greater than 2 h.

What about the inhibition at 10 µM [15] of the same compound?
The inhibition at 10 µM was 3%.

And the inhibition at 10 µM [16]?
Its inhibition at 10 µM is -5%.

And the inhibition at 10 µM [17]?
Its inhibition at 10 µM is 30%.

What about the MIC ([18]; Haemophilus influenzae ATCC 35056, replicates) of the same compound?
The MIC was 17 µg/mL (≈ 50.2 µM).

What about the MIC ([18]; Haemophilus influenzae, ATCC35056, Haemophilus influenzae ATCC 35056, replicates, read-out: MIC) of the same compound?
Its MIC is 17 µg/mL (≈ 50.2 µM).

What about the MIC ([18]; Haemophilus influenzae, ATCC35056, strain ATCC 35056, read-out: MIC) of the same compound?
Its MIC is 17.5 µg/mL (≈ 51.7 µM).

What about the inhibition at 10 µM [19] of the same compound?
Its inhibition at 10 µM is 44%.

And the inhibition at 10 µM [20]?
The inhibition at 10 µM was 8%.
